The record followed here is patent publication US20260176289A1, “SMALL MOLECULE INHIBITORS OF KRAS PROTEINS” (Merck Sharp & Dohme LLC, priority 2022, published 2026).

Structures are written as SMILES. Like-named read-outs stand apart in the source and are kept apart here.

For one test, the target named is KRAS-WT (Homo sapiens, UniProt P01116). As to the kind of experiment: SOS-catalyzed nucleotide exchange assay (Procedure A, TR-FRET), KRAS-WT. It counts as biochemical. The following applies: nucleotide exchange, read-out: KRAS WT GNE IC50. In short, it runs like this: (§1)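 TR-FRET readout (520/495 nm) of SOS-driven exchange of Bodipy-GDP for unlabeled GTP (3 mM) on biotinylated, Tb-streptavidin-bound RAS, after 60 min compound preincubation at room temperature. Exchange times and RAS/SOS levels: 60 min for WT (1/40 nM), G12C triple mutant (3/40 nM), NRAS (1.25/40 nM); 90 min for G12V (1.25/160 nM). Four-parameter logistic fits on normalized effect.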
Sequence of KRAS-WT (P01116 with tags, fused parts or gaps isoform P01116-2): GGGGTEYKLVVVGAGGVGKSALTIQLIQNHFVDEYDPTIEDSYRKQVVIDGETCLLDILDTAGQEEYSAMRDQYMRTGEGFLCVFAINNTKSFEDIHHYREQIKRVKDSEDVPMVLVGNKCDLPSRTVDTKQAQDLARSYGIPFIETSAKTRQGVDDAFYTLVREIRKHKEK

Another test has as its target KRAS-G12V (Homo sapiens, UniProt P01116, G12V). In words: SOS-catalyzed nucleotide exchange assay (Procedure A, TR-FRET), KRAS-G12V. Conditions: nucleotide exchange, read-out: KRAS G12V GNE IC50. The format is biochemical. In short, it runs like this: as §1
On the technique in general: In TR-FRET formats the signal depends on donor and acceptor labels being close together.

In test [1] the target is KRAS-G12C (C51S/C80L/C118S) (Homo sapiens, UniProt P01116, C118S/C51S/C80L/G12C). As to the kind of experiment: SOS-catalyzed nucleotide exchange assay (Procedure A, TR-FRET), KRAS-G12C. Conditions: nucleotide exchange, Procedure A; read-out: KRAS G12C GNE IC50. The format is biochemical. In outline:
as §1

The target in another test is KRAS-G13D (Homo sapiens, UniProt P01116, G13D). In words: SOS-catalyzed nucleotide exchange assay (Procedure A, TR-FRET), KRAS-G13D. It counts as biochemical. The following applies: nucleotide exchange, Procedure A; read-out: KRAS G13D GNE IC50.
Sequence of KRAS-G13D (P01116 with tags, fused parts or gaps isoform P01116-2 G13D): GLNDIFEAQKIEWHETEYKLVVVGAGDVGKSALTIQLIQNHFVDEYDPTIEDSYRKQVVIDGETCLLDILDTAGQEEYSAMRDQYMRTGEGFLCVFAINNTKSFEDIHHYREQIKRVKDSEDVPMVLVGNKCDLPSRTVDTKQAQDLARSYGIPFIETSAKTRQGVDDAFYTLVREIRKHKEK
The target of the next test is HRAS (Homo sapiens, UniProt P01112). As to the kind of experiment: SOS-catalyzed nucleotide exchange assay (Procedure A, TR-FRET), HRAS. Conditions: read-out: HRAS GNE IC50. The format is biochemical. In short, it runs like this: (§2)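 Signal ratio (520/495 nm, excitation 340 nm) reports Bodipy-GDP retention on biotinylated RAS after SOS-catalyzed exchange with 3 mM GTP. SOS was 40 nM, except 160 nM for G12V. Room-temperature exchange lasted 60 min (90 min for G12V), following a 60 min compound preincubation.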
Sequence of HRAS (P01112 with tags, fused parts or gaps): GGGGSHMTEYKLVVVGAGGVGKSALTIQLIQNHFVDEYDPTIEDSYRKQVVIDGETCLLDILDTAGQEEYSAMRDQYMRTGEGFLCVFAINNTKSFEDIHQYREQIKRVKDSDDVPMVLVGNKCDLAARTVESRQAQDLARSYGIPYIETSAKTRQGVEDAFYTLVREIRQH

A further test deals with MKN-1 cells. As to the kind of experiment: Cellular phospho-ERK assay, MKN-1 cells (amplified wild-type KRAS). It counts as cell-based. The following applies: Homo sapiens, read-out: MKN1 pERK IC50. In short, it runs like this:
(§3)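 Inhibition of ERK phosphorylation was determined after treating attached cells with compound for 2 h; top concentration 30 μM, serial 1:3 dilution. Each well's p-ERK:total ERK ratio, read by SureFire Ultra, was fitted with a four-parameter model for IC50.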

The next test concerns AsPC-1 cells. As to the kind of experiment: Cellular phospho-ERK assay, AsPC-1 cells (homozygous KRAS-G12D). The following applies: Homo sapiens, ASPC1, 2 h, read-out: AsPC1 pERK IC50. It counts as cell-based. In outline: as §3
A further test deals with NRAS (Homo sapiens, UniProt P01111). In words: SOS-catalyzed nucleotide exchange assay (Procedure A, TR-FRET), NRAS. The following applies: read-out: NRAS GNE IC50. It counts as biochemical. An excerpt:
Procedure for SOS-Catalyzed Nucleotide Exchange Assay for KRAS-WT, G12C/D/V, G13D, HRAS, and NRAS (Procedure A)
Recombinant KRAS-G12C protein used in this assay has an additional triple mutation (C51S/C80L/C118S). Whereas KRAS-WT, G12D/V, G13D, HRAS and NRAS are in context of their WT protein sequence background. Specifically, the SOS-catalyzed nucleotide exchange assay utilizes a preformed TR-FRET complex containing a specific biotinylated RAS protein (KRAS-WT, G12C/V/D, G13D, HRAS, NRAS; described above) with Bodipy-GDP, and Terbium-streptavidin. Compounds are preincubated with this complex for 60 minutes. Subsequently, recombinant human SOS protein and unlabeled GTP are added to initiate the exchange reaction. Small molecule inhibitors stabilize the Bodipy-GDP complex whereas the untreated protein rapidly exchanges Bodipy-GDP for unlabeled GTP resulting in reduced TR-FRET signal.
To assemble the preformed TR-FRET complexes, each biotinylated RAS protein is diluted to 2 μM in an EDTA Buffer (20 mM HEPES pH 7.5, 50 mM sodium chloride, 10 mM EDTA, and 0.01% Tween) and incubated at room temperature for one hour. This mixture is then further diluted to 90 nM in an Assay Buffer (20 mM HEPES pH 7.5, 150 mM sodium chloride, 10 mM magnesium chloride, and 0.005% Tween) containing 15 nM of Terbium-Streptavidin (Invitrogen, catalog #PV3577) and 900 nM of Bodipy-GDP (Invitrogen, catalog #G22360) and incubated at room temperature for six hours. It should be noted that this preformed TR-FRET complex for each of the RAS protein were made ahead of time, aliquoted and stored at −80° C. until the day of the experiment.
Each test compound (10 mM stock in DMSO) is diluted in DMSO to make a final-10-point, 3-fold dilution and is acoustically dispensed into a 384-well assay plate (Corning, catalog #3820) using an Echo 550 (Labcyte). Each well of the assay plate receives 3 μL of a specific 3×RAS preformed TR-FRET complex and 3 μL of Assay Buffer and is incubated at room temperature for 60 minutes (preincubation time). Each well then receives 3 μL of 3×recombinant human SOS protein and GTP (Sigma, G8877) in Assay Buffer and is incubated at room temperature for 30 minutes (G13D), 60 minutes (KRAS WT/G12C/D, H/NRAS) or 90 minutes for G12V. […]
The time-resolved fluorescence resonance energy transfer (TR-FRET) signal is measured on an Envision (PerkinElmer) plate reader: Excitation filter=340 nm; emission 1=495 nm; emission2=520 nm; dichroic mirror=D400/D505; delay time=[…]. The signal of each well is determined as the ratio of the emission at 520 nm to that at 495 nm. Percent effect of each well is determined after normalization to control wells containing DMSO (no effect) or a saturating concentration of inhibitor (max effect). […]

A further test relates to SW620 cells. As to the kind of experiment: Cellular phospho-ERK assay, SW620 cells (homozygous KRAS-G12V). Conditions: Homo sapiens, read-out: SW620 pERK IC50. It counts as cell-based. In outline: as §3
The target of another test is KRAS-G12D (Homo sapiens, UniProt P01116, G12D). As to the kind of experiment: SOS-catalyzed nucleotide exchange assay (Procedure A, TR-FRET), KRAS-G12D. It counts as biochemical. Conditions: nucleotide exchange, read-out: KRAS G12D GNE IC50. In outline: as §2
Sequence of KRAS-G12D (P01116 with tags, fused parts or gaps isoform P01116-2 G12D): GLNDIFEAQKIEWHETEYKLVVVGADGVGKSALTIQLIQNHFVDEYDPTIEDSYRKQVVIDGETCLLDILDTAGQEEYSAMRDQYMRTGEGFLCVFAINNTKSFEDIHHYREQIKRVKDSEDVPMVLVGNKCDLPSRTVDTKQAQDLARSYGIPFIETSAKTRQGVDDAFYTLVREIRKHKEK
A further test concerns PANC08.13 cells. As to the kind of experiment: Cellular phospho-ERK assay, PANC08.13 cells (homozygous KRAS-G12D). The following applies: Homo sapiens, PANC-08-13, 2 hours compound incubation, read-out: PANC-08.13 pERK IC50. It counts as cell-based. In outline:
as §3

[2] abbreviates: SW-620, 2 hours compound incubation.

Sequence of KRAS-G12V (P01116 with tags, fused parts or gaps isoform P01116-2 G12V): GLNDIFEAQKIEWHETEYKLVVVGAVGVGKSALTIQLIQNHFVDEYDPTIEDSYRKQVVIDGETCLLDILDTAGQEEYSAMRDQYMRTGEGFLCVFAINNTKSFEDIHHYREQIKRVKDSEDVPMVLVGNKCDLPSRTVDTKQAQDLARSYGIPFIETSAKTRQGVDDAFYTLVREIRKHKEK
Sequence of KRAS-G12C (C51S/C80L/C118S) (P01116 with tags, fused parts or gaps isoform P01116-2 G12C/C51S/C80L/C118S): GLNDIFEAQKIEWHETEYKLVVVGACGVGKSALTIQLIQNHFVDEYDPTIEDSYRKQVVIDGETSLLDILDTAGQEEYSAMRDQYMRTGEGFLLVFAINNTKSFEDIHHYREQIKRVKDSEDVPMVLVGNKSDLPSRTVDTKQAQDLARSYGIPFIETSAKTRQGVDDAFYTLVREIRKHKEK
Sequence of NRAS (P01111 with tags, fused parts or gaps): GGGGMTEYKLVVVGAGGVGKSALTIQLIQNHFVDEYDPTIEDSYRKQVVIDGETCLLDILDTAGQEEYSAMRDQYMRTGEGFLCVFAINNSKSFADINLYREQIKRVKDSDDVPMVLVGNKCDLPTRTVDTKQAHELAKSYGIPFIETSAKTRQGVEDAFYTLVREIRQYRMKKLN

For the compound `C#Cc1csc2cc3[nH]ncc3c(-c3nccc4c3sc3nc(OC[C@@]56CCCN5C[C@H](F)C6)nc(N5CCOC[C@@](C)(O)C5)c34)c12` [Ex-163, (6S)-4-(8-(5-ethyn-yl-1H-thieno[3,2-f]indazol-4-yl)-2-(((2R,7aS)-2-fluoro-tetrahydro-1H-pyr-rolizin-7a(5H)-yl)-methoxy)pyrido [4′,3′:4,5]thieno[2,3-d]pyrimidin-4-yl)-6-methyl-1,4-oxaze-pan-6-ol], the IC50 at KRAS-WT was found to be 3.79 nM; on KRAS-G12V, 4.53 nM; in test [1], 19.8 nM; at KRAS-G13D, 3.13 nM; on HRAS, 1450 nM; with MKN-1 cells (2 hours compound incubation), 20.8 nM. Besides, the half-inhibitory concentration (IC50) turned out to be 14.6 nM in the test with AsPC-1 cells (2 hours compound incubation), 7370 nM at NRAS, 2.29 nM in the test on SW620 cells (setting [2]) and 2.36 nM at KRAS-G12D.

Take `CN(C)C[C@@]1(COc2nc(N3CCOC[C@@](C)(O)C3)c3c(n2)sc2c(-c4c(C5CC5)c(Cl)cc5[nH]ncc45)nccc23)CC1(F)F` [Ex-131, (6S)-4-(8-(6-chloro-5-cyclopropyl-1H-indazol-4-yl)-2-(((R)-1-((dimeth-ylamino)methyl)-2,2-difluorocyclo-propyl)methoxy)-pyrido[4′,3′:4,5]thieno[2,3-d]pyr-imidin-4-yl)-6-methyl-1,4-oxaze-pan-6-ol]: the IC50 at KRAS-WT is 11.3 nM; on KRAS-G12V, 18.2 nM; in test [1], 97.9 nM; on KRAS-G13D, 7.21 nM; at HRAS, 389 nM; in the test with MKN-1 cells (amplified wild-type KRAS, 2 hours), 22.8 nM. Besides, the IC50 in the test on AsPC-1 cells (KRAS-G12D, 2 hours) stood at 21.8 nM; on NRAS, 5160 nM; in the test on SW620 cells (SW-620, KRAS-G12V, 2 hours) it was 15.1 nM; on KRAS-G12D, 3.57 nM.

As to `C#Cc1c(F)ccc2cc(O)cc(-c3nccc4c3sc3nc(OC[C@@]56CCCN5C[C@H](F)C6)nc(N5CCOC[C@@](C)(O)C5)c34)c12` [Ex-135, (S)-4-(8-(8-ethynyl-7-fluoro-3-hydroxy-naphthalen-1-yl)-2-(((2R,7aS)-2-fluoro-tetrahydro-1H-pyr-rolizin-7a(5H)-yl)-methoxy)pyrido [4′,3′:4,5]thieno[2,3-d]pyrimidin-4-yl)-6-methyl-1,4-oxaze-pan-6-ol], the IC50 stood at 0.766 nM at KRAS-WT; 1.08 nM at KRAS-G12V; 9.25 nM in test [1]; 1.4 nM with PANC08.13 cells; 2.54 nM on KRAS-G13D; 1570 nM at HRAS. Moreover, the IC50 with MKN-1 cells (2 hours compound incubation) is 3.86 nM; with AsPC-1 cells (2 hours compound incubation) it was 4.61 nM; at NRAS it was 9400 nM; in the test with SW620 cells (setting [2]) it was 1.5 nM; on KRAS-G12D it was 1.47 nM.

In general, IC50 refers to the concentration needed to halve the response being measured.
